The IC50 is the concentration needed to halve the response being measured. The term inhibition denotes the relative decrease from the control value, in per cent.

The results in this text go back to ChEMBL document CHEMBL6078668, “Synthesis and biological evaluation of lappaconitine analogues as potential anti-neuroinflammatory agents by side chain modification and scaffold hopping strategy” (Bioorg Med Chem, 2025).

For series [1], the system named is BV-2. Description: Anti-neuroinflammatory activity against LPS-stimulated C57BL/6 mouse BV-2 cells assessed as inhibition of NO release preincubated with compound for 4 hrs followed by LPS addition and measured after 24 hrs by Griess reagent based assay. It counts as functional, cell-based. Particulars: C57BL/6, BV-2.
Series [2] relates to BV-2. The experiment in a line: Anti-neuroinflammatory activity against LPS-stimulated C57BL/6 mouse BV-2 cells assessed as inhibition of NO release at 30 uM preincubated with compound for 4 hrs followed by LPS addition and measured after 24 hrs by Griess reagent based assay relative to control. It counts as functional. The conditions noted are these: C57BL/6, BV-2, time 28 hrs. (The Griess reaction detects nitrite, a stable product of nitric oxide.)

Series [3] can be described thus: Cytotoxicity against C57BL/6 mouse BV-2 cells assessed as survival rate at 30 uM incubated for 24 hrs by MTT assay relative to control. It counts as toxicity, cell-based. The conditions noted are these: read-out: Survival. In general terms: Formazan colour is commonly taken as a measure of viable cells.

Consider `CCN1C[C@]2(OC(=O)c3ccccc3NC(=O)S(=O)(=O)c3cc(F)cc(F)c3)CC[C@H](OC)[C@]34C1[C@@H](C[C@H]23)[C@@]1(O)C[C@H](OC)[C@H]2C[C@@H]4[C@]1(O)[C@H]2OC`, for which the 50% inhibitory concentration (IC50) in series [1] stood at 20.4 µM. Also, the inhibition at 30 µM in series [2] worked out at 64.1%. The viability at 24 h, 30 µM in series [3] was 102%.

On to `CCCOc1ccc(C(=O)Nc2ccccc2C(=O)O[C@@]23CC[C@H](OC)[C@]45C([C@@H](C[C@H]24)[C@@]2(O)C[C@H](OC)[C@H]4C[C@@H]5[C@]2(O)[C@H]4OC)N(CC)C3)cc1`, for which the IC50 in series [1] was 15.5 µM. In addition, in series [2], the inhibition at 30 µM stood at 74.8%. In addition, the viability at 24 h, 30 µM in series [3] was 105%.

Consider `CCN1C[C@]2(OC(=O)c3ccccc3NC(=O)c3ccc(Br)s3)CC[C@H](OC)[C@]34C1[C@@H](C[C@H]23)[C@@]1(O)C[C@H](OC)[C@H]2C[C@@H]4[C@]1(O)[C@H]2OC`, for which the concentration for half-maximal inhibition (IC50) in series [1] is 16.5 µM. Further, the inhibition at 30 µM in series [2] stood at 72.9%. Besides, the viability at 24 h, 30 µM in series [3] came out at 103%.

For the molecule `CCCOc1ccccc1C(=O)Nc1ccccc1C(=O)O[C@@]12CC[C@H](OC)[C@]34C([C@@H](C[C@H]13)[C@@]1(O)C[C@H](OC)[C@H]3C[C@@H]4[C@]1(O)[C@H]3OC)N(CC)C2`, the IC50 in series [1] was 11.8 µM. For the same molecule, the inhibition at 30 µM in series [2] was 78.5%. For the same molecule, the viability at 24 h, 30 µM in series [3] stood at 106%.

For `CCN1C[C@]2(OC(=O)c3ccccc3NC(=O)S(=O)(=O)c3ccc(Cl)s3)CC[C@H](OC)[C@]34C1[C@@H](C[C@H]23)[C@@]1(O)C[C@H](OC)[C@H]2C[C@@H]4[C@]1(O)[C@H]2OC`, the IC50 in series [1] amounted to 17.9 µM. In series [2], the inhibition at 30 µM worked out at 69%. For the same molecule, the viability at 24 h, 30 µM in series [3] is 100%.

Turning to `CCN1C[C@]2(OC(=O)c3ccccc3NC(=O)c3ccc(Cl)s3)CC[C@H](OC)[C@]34C1[C@@H](C[C@H]23)[C@@]1(O)C[C@H](OC)[C@H]2C[C@@H]4[C@]1(O)[C@H]2OC`, in series [1], the half-inhibitory concentration (IC50) stood at 11.3 µM. Further, the inhibition at 30 µM in series [2] is 82.1%. Moreover, the viability at 24 h, 30 µM in series [3] was 108%.

With `CCN1C[C@]2(OC(=O)c3ccccc3NC(=O)S(=O)(=O)c3cccnc3)CC[C@H](OC)[C@]34C1[C@@H](C[C@H]23)[C@@]1(O)C[C@H](OC)[C@H]2C[C@@H]4[C@]1(O)[C@H]2OC`, the IC50 in series [1] was determined as 22.2 µM. Besides, the inhibition at 30 µM in series [2] stood at 63.2%. For the same molecule, the viability at 24 h, 30 µM in series [3] turned out to be 99.3%.

`CCN1C[C@]2(OC(=O)c3ccccc3NC(=O)S(=O)(=O)c3ccccc3C#N)CC[C@H](OC)[C@]34C1[C@@H](C[C@H]23)[C@@]1(O)C[C@H](OC)[C@H]2C[C@@H]4[C@]1(O)[C@H]2OC`: the inhibition at 30 µM in series [2] came out at 27.5%. For the same molecule, in series [3], the viability at 24 h, 30 µM is 101%.

For the molecule `CCN1C[C@]2(OC(=O)c3ccccc3NC(=O)S(=O)(=O)c3ccc(F)cc3)CC[C@H](OC)[C@]34C1[C@@H](C[C@H]23)[C@@]1(O)C[C@H](OC)[C@H]2C[C@@H]4[C@]1(O)[C@H]2OC`, the inhibition at 30 µM in series [2] is 40.6%. Further, the viability at 24 h, 30 µM in series [3] turned out to be 109%.

With `CCN1C[C@]2(OC(=O)c3ccccc3NC(=O)S(=O)(=O)c3ccc(Cl)cc3)CC[C@H](OC)[C@]34C1[C@@H](C[C@H]23)[C@@]1(O)C[C@H](OC)[C@H]2C[C@@H]4[C@]1(O)[C@H]2OC`, the inhibition at 30 µM in series [2] came to 39.2%. Further, the viability at 24 h, 30 µM in series [3] was found to be 100%.

For `CCN1C[C@]2(OC(=O)c3ccccc3NC(=O)c3ccc(Br)cc3)CC[C@H](OC)[C@]34C1[C@@H](C[C@H]23)[C@@]1(O)C[C@H](OC)[C@H]2C[C@@H]4[C@]1(O)[C@H]2OC`, in series [2], the inhibition at 30 µM came out at 21.3%. For the same molecule, the viability at 24 h, 30 µM in series [3] amounted to 102%.

Take `CCN1C[C@]2(OC(=O)c3ccccc3NC(=O)S(=O)(=O)c3ccc4c(c3)OCC4)CC[C@H](OC)[C@]34C1[C@@H](C[C@H]23)[C@@]1(O)C[C@H](OC)[C@H]2C[C@@H]4[C@]1(O)[C@H]2OC`: the inhibition at 30 µM in series [2] turned out to be 9.9%. Also, in series [3], the viability at 24 h, 30 µM was determined as 96.3%.

Turning to `CCN1C[C@]2(OC(=O)c3ccccc3NC(=O)S(=O)(=O)c3ccc(C)cc3F)CC[C@H](OC)[C@]34C1[C@@H](C[C@H]23)[C@@]1(O)C[C@H](OC)[C@H]2C[C@@H]4[C@]1(O)[C@H]2OC`, in series [2], the inhibition at 30 µM turned out to be 26.4%. Moreover, the viability at 24 h, 30 µM in series [3] was 106%.

Regarding `CCN1C[C@]2(OC(=O)c3ccccc3NC(=O)CC(C)C)CC[C@H](OC)[C@]34C1[C@@H](C[C@H]23)[C@@]1(O)C[C@H](OC)[C@H]2C[C@@H]4[C@]1(O)[C@H]2OC`, the inhibition at 30 µM in series [2] came to 16.7%. The viability at 24 h, 30 µM in series [3] came out at 102%.

With `CCN1C[C@]2(OC(=O)c3ccccc3NC(=O)c3ccccc3OC)CC[C@H](OC)[C@]34C1[C@@H](C[C@H]23)[C@@]1(O)C[C@H](OC)[C@H]2C[C@@H]4[C@]1(O)[C@H]2OC`, the inhibition at 30 µM in series [2] was 34.2%. Besides, the viability at 24 h, 30 µM in series [3] worked out at 97%.

For the molecule `CCN1C[C@]2(COC(=O)c3ccccc3NS(=O)(=O)c3ccc(Br)s3)CC[C@H](OC)[C@]34C1[C@@H](C[C@H]23)[C@@]1(O)C[C@H](OC)[C@H]2C[C@@H]4[C@]1(O)[C@H]2OC`, in series [2], the inhibition at 30 µM was 34.7%. The viability at 24 h, 30 µM in series [3] worked out at 97.8%.

In the case of `CCN1C[C@]2(COC(=O)c3ccccc3NS(=O)(=O)c3cccc(F)c3)CC[C@H](OC)[C@]34C1[C@@H](C[C@H]23)[C@@]1(O)C[C@H](OC)[C@H]2C[C@@H]4[C@]1(O)[C@H]2OC`, the inhibition at 30 µM in series [2] was 20.1%. The viability at 24 h, 30 µM in series [3] worked out at 102%.

As for `CCN1C[C@]2(OC(=O)c3ccccc3NC(=O)S(=O)(=O)c3ccc(OCc4ccccc4)cc3)CC[C@H](OC)[C@]34C1[C@@H](C[C@H]23)[C@@]1(O)C[C@H](OC)[C@H]2C[C@@H]4[C@]1(O)[C@H]2OC`, the inhibition at 30 µM in series [2] worked out at 21.3%. Moreover, the viability at 24 h, 30 µM in series [3] worked out at 102%.

For the molecule `CCN1C[C@]2(OC(=O)c3ccccc3NC(=O)S(=O)(=O)c3ccccn3)CC[C@H](OC)[C@]34C1[C@@H](C[C@H]23)[C@@]1(O)C[C@H](OC)[C@H]2C[C@@H]4[C@]1(O)[C@H]2OC`, the inhibition at 30 µM in series [2] was found to be 29.9%. In series [3], the viability at 24 h, 30 µM was found to be 100%.

`CCN1C[C@]2(OC(=O)c3ccccc3NC(=O)c3ccc(C#N)cc3)CC[C@H](OC)[C@]34C1[C@@H](C[C@H]23)[C@@]1(O)C[C@H](OC)[C@H]2C[C@@H]4[C@]1(O)[C@H]2OC`: the inhibition at 30 µM in series [2] turned out to be 6.6%. Also, the viability at 24 h, 30 µM in series [3] was found to be 99.5%.

With `CCN1C[C@]2(OC(=O)c3ccccc3NC(=O)S(=O)(=O)c3cc(F)c(F)cc3F)CC[C@H](OC)[C@]34C1[C@@H](C[C@H]23)[C@@]1(O)C[C@H](OC)[C@H]2C[C@@H]4[C@]1(O)[C@H]2OC`, the inhibition at 30 µM in series [2] was determined as 10.5%. Also, the viability at 24 h, 30 µM in series [3] was 108%.

With `CCN1C[C@]2(COC)CC[C@H](OC)[C@]34C1[C@@H](C[C@H]23)[C@@]1(O)C[C@H](OC)[C@H]2C[C@@H]4[C@]1(O)[C@H]2OC(=O)c1ccccc1N`, in series [2], the inhibition at 30 µM was 19.4%. The viability at 24 h, 30 µM in series [3] was determined as 101%.

Consider `CCN1C[C@]2(OC(=O)c3ccccc3NC(=O)c3ccc(S(C)(=O)=O)cc3)CC[C@H](OC)[C@]34C1[C@@H](C[C@H]23)[C@@]1(O)C[C@H](OC)[C@H]2C[C@@H]4[C@]1(O)[C@H]2OC`, for which the inhibition at 30 µM in series [2] worked out at 20%. Besides, the viability at 24 h, 30 µM in series [3] was determined as 103%.
